Calls of active or inactive are those of the source. No rule for the calls is given here.
Test system: CCRIS mutagenicity, Ames/micronucleus/aberration tests
Assay: CCRIS mutagenicity studies
[1] = Test System: AMES SALMONELLA TYPHIMURIUM, Strain/Indicator: TA98, Metabolic Activation: NONE, Method: PREINCUBATION
[2] = Test System: AMES SALMONELLA TYPHIMURIUM, Strain/Indicator: TA100, Metabolic Activation: NONE, Method: PREINCUBATION
[3] = Test System: AMES SALMONELLA TYPHIMURIUM, Strain/Indicator: TA1535, Metabolic Activation: NONE, Method: PREINCUBATION
[4] = Test System: AMES SALMONELLA TYPHIMURIUM, Strain/Indicator: TA98, Metabolic Activation: NONE, Method: STANDARD PLATE
[5] = Test System: AMES SALMONELLA TYPHIMURIUM, Strain/Indicator: TA98, Metabolic Activation: RAT, LIVER, S-9, AROCLOR 1254, Method: STANDARD PLATE
[6] = Test System: AMES SALMONELLA TYPHIMURIUM, Strain/Indicator: TA100, Metabolic Activation: NONE, Method: STANDARD PLATE
[7] = Test System: AMES SALMONELLA TYPHIMURIUM, Strain/Indicator: TA100, Metabolic Activation: RAT, LIVER, S-9, AROCLOR 1254, Method: STANDARD PLATE

Question: How did the mutagenic call (Test System: AMES SALMONELLA TYPHIMURIUM, Strain/Indicator: TA97, Metabolic Activation: HAMSTER, LIVER, S-9, AROCLOR 1254 (10 OR 30%), Method: PREINCUBATION) turn out when `N#CCCCCC#N` was run?
Answer: The mutagenic call was “inactive; negative”.

Question: What about the mutagenic call (Test System: AMES SALMONELLA TYPHIMURIUM, Strain/Indicator: TA97, Metabolic Activation: NONE, Method: PREINCUBATION) of the same compound?
Answer: Its mutagenic call is “inactive; negative”.

Question: What about the mutagenic call (Test System: AMES SALMONELLA TYPHIMURIUM, Strain/Indicator: TA97, Metabolic Activation: RAT, LIVER, S-9, AROCLOR 1254 (10 OR 30%), Method: PREINCUBATION) of the same compound?
Answer: Its mutagenic call is “inactive; negative”.

Question: And the mutagenic call (Test System: AMES SALMONELLA TYPHIMURIUM, Strain/Indicator: TA98, Metabolic Activation: HAMSTER, LIVER, S-9, AROCLOR 1254 (10 OR 30%), Method: PREINCUBATION)?
Answer: Its mutagenic call is “inactive; negative”.

Question: And the mutagenic call [1]?
Answer: The mutagenic call was “inactive; negative”.

Question: What about the mutagenic call (Test System: AMES SALMONELLA TYPHIMURIUM, Strain/Indicator: TA98, Metabolic Activation: RAT, LIVER, S-9, AROCLOR 1254 (10 OR 30%), Method: PREINCUBATION) of the same compound?
Answer: The mutagenic call was “inactive; negative”.

Question: What about the mutagenic call (Test System: AMES SALMONELLA TYPHIMURIUM, Strain/Indicator: TA100, Metabolic Activation: HAMSTER, LIVER, S-9, AROCLOR 1254 (10 OR 30%), Method: PREINCUBATION) of the same compound?
Answer: Its mutagenic call is “inactive; negative”.

Question: What about the mutagenic call [2] of the same compound?
Answer: The mutagenic call was “inactive; negative”.

Question: And the mutagenic call (Test System: AMES SALMONELLA TYPHIMURIUM, Strain/Indicator: TA100, Metabolic Activation: RAT, LIVER, S-9, AROCLOR 1254 (10 OR 30%), Method: PREINCUBATION)?
Answer: The mutagenic call was “inactive; negative”.

Question: And the mutagenic call (Test System: AMES SALMONELLA TYPHIMURIUM, Strain/Indicator: TA1535, Metabolic Activation: HAMSTER, LIVER, S-9, AROCLOR 1254 (10 OR 30%), Method: PREINCUBATION)?
Answer: Its mutagenic call is “inactive; negative”.

Question: What about the mutagenic call [3] of the same compound?
Answer: Its mutagenic call is “inactive; negative”.

Question: And the mutagenic call (Test System: AMES SALMONELLA TYPHIMURIUM, Strain/Indicator: TA1535, Metabolic Activation: RAT, LIVER, S-9, AROCLOR 1254 (10 OR 30%), Method: PREINCUBATION)?
Answer: Its mutagenic call is “inactive; negative”.

Question: Which mutagenic call [4] does the source give for `Cc1ccc(C)c2c1ccc1ccccc12` here?
Answer: The mutagenic call was “inactive; negative”.

Question: What about the mutagenic call [5] of the same compound?
Answer: The mutagenic call was “active; positive”.

Question: What about the mutagenic call [6] of the same compound?
Answer: Its mutagenic call is “inactive; negative”.

Question: What about the mutagenic call [7] of the same compound?
Answer: Its mutagenic call is “active; positive”.

Question: Which results are given for `CC1=C(C)C2(C3=CC(=O)C=CC3=Nc3ccc(O)cc32)C(C)=C(C)C1=O`?
Answer: mutagenic call (Test System: AMES SALMONELLA TYPHIMURIUM, Strain/Indicator: TA1538, Metabolic Activation: NONE, Method: STANDARD PLATE): inactive; negative; mutagenic call (Test System: AMES SALMONELLA TYPHIMURIUM, Strain/Indicator: TA1538, Metabolic Activation: RAT, LIVER, S-9, AROCLOR 1254, Method: STANDARD PLATE): inactive; negative

Question: For `CNc1ccc(N=Nc2ccc(N(C)C(C)=O)cc2)cc1`, which mutagenic call (Test System: AMES SALMONELLA TYPHIMURIUM, Strain/Indicator: TA98, Metabolic Activation: RAT, LIVER, S-9, POLYCHLORINATED BIPHENYLS, Method: PREINCUBATION) is on record?
Answer: Its mutagenic call is “active; positive”.

Question: What about the mutagenic call (Test System: AMES SALMONELLA TYPHIMURIUM, Strain/Indicator: TA100, Metabolic Activation: RAT, LIVER, S-9, POLYCHLORINATED BIPHENYLS, Method: PREINCUBATION) of the same compound?
Answer: Its mutagenic call is “active; positive”.

Question: `CCN(COC(C)=O)N=O` was tested. Which mutagenic call (Test System: UDS RAT UROTHELIAL CELLS, Strain/Indicator: THY INCORP, Metabolic Activation: NONE) did it give?
Answer: Its mutagenic call is “active; positive”.

Question: For `N#Cc1ccc(CCl)cc1`, which mutagenic call [6] is on record?
Answer: The mutagenic call was “inactive; negative”.

Question: `CCC1=C(C(=O)OC)C(=O)OC1C` (stereo not given) was tested. Which mutagenic call (Test System: AMES SALMONELLA TYPHIMURIUM, Strain/Indicator: TA98, Metabolic Activation: NONE, Method: DISK ASSAY) did it give?
Answer: Its mutagenic call is “inactive; negative”.

Question: And the mutagenic call [4]?
Answer: Its mutagenic call is “active; positive”.

Question: What about the mutagenic call (Test System: AMES SALMONELLA TYPHIMURIUM, Strain/Indicator: TA98, Metabolic Activation: RAT, LIVER, S-9, AROCLOR 1254, Method: DISK ASSAY) of the same compound?
Answer: Its mutagenic call is “inactive; negative”.

Question: And the mutagenic call [5]?
Answer: The mutagenic call was “active; positive”.

Question: With `OC1C=Cc2c(ccc3ccccc23)C1O` (stereo not given) as the compound, how does the mutagenic call [7] read?
Answer: Its mutagenic call is “active; positive”.

Question: Which results are given for `NCCO`?
Answer: mutagenic call (Test System: AMES SALMONELLA TYPHIMURIUM, Strain/Indicator: TA98, Metabolic Activation: HAMSTER, LIVER, S-9, AROCLOR 1254 (10%), Method: PREINCUBATION): inactive; negative; mutagenic call [1]: inactive; negative; mutagenic call (Test System: AMES SALMONELLA TYPHIMURIUM, Strain/Indicator: TA98, Metabolic Activation: RAT LIVER S-9, PHENOBARBITAL AND BETA-NAPHTHOFLAVONE, Method: PREINCUBATION): inactive; negative; mutagenic call (Test System: AMES SALMONELLA TYPHIMURIUM, Strain/Indicator: TA98, Metabolic Activation: RAT, LIVER, S-9, AROCLOR 1254 (10%), Method: PREINCUBATION): inactive; negative; mutagenic call (Test System: AMES SALMONELLA TYPHIMURIUM, Strain/Indicator: TA100, Metabolic Activation: HAMSTER, LIVER, S-9, AROCLOR 1254 (10%), Method: PREINCUBATION): inactive; negative; mutagenic call [2]: inactive; negative; mutagenic call (Test System: AMES SALMONELLA TYPHIMURIUM, Strain/Indicator: TA100, Metabolic Activation: RAT LIVER S-9, PHENOBARBITAL AND BETA-NAPHTHOFLAVONE, Method: PREINCUBATION): inactive; negative; mutagenic call (Test System: AMES SALMONELLA TYPHIMURIUM, Strain/Indicator: TA100, Metabolic Activation: RAT, LIVER, S-9, AROCLOR 1254 (10%), Method: PREINCUBATION): inactive; negative; mutagenic call (Test System: AMES SALMONELLA TYPHIMURIUM, Strain/Indicator: TA1535, Metabolic Activation: HAMSTER, LIVER, S-9, AROCLOR 1254 (10%), Method: PREINCUBATION): inactive; negative; mutagenic call [3]: inactive; negative; mutagenic call (Test System: AMES SALMONELLA TYPHIMURIUM, Strain/Indicator: TA1535, Metabolic Activation: RAT LIVER S-9, PHENOBARBITAL AND BETA-NAPHTHOFLAVONE, Method: PREINCUBATION): inactive; negative; mutagenic call (Test System: AMES SALMONELLA TYPHIMURIUM, Strain/Indicator: TA1535, Metabolic Activation: RAT, LIVER, S-9, AROCLOR 1254 (10%), Method: PREINCUBATION): inactive; negative; mutagenic call (Test System: AMES SALMONELLA TYPHIMURIUM, Strain/Indicator: TA1537, Metabolic Activation: HAMSTER, LIVER, S-9, AROCLOR 1254 (10%), Method: PREINCUBATION): inactive; negative; mutagenic call (Test System: AMES SALMONELLA TYPHIMURIUM, Strain/Indicator: TA1537, Metabolic Activation: NONE, Method: PREINCUBATION): inactive; negative; mutagenic call (Test System: AMES SALMONELLA TYPHIMURIUM, Strain/Indicator: TA1537, Metabolic Activation: RAT LIVER S-9, PHENOBARBITAL AND BETA-NAPHTHOFLAVONE, Method: PREINCUBATION): inactive; negative; mutagenic call (Test System: AMES SALMONELLA TYPHIMURIUM, Strain/Indicator: TA1537, Metabolic Activation: RAT, LIVER, S-9, AROCLOR 1254 (10%), Method: PREINCUBATION): inactive; negative; mutagenic call (Test System: AMES SALMONELLA TYPHIMURIUM, Strain/Indicator: TA1538, Metabolic Activation: NONE, Method: PREINCUBATION): inactive; negative; mutagenic call (Test System: AMES SALMONELLA TYPHIMURIUM, Strain/Indicator: TA1538, Metabolic Activation: RAT LIVER S-9, PHENOBARBITAL AND BETA-NAPHTHOFLAVONE, Method: PREINCUBATION): inactive; negative; mutagenic call (Test System: E.COLI, Strain/Indicator: WP2UVRA, Metabolic Activation: NONE, Method: PREINCUBATION): active; positive; mutagenic call (Test System: E.COLI, Strain/Indicator: WP2UVRA, Metabolic Activation: RAT LIVER S-9, PHENOBARBITAL AND BETA-NAPHTHOFLAVONE, Method: PREINCUBATION): inactive; negative

Question: Which results are given for `O[C@@H]1[C@H]2O[C@H]2c2c(ccc3cc4c(ccc5ccccc54)nc23)[C@H]1O`?
Answer: mutagenic call [1]: active; positive; mutagenic call [2]: active; positive; mutagenic call (Test System: CHINESE HAMSTER V-79, Strain/Indicator: V-79/8-AZAGUANINE, Metabolic Activation: NONE): active; positive

Reference: PubChem BioAssay AID1259407 (Chemical Carcinogenesis Research Information System (CCRIS), 2018)
